Results on four compounds are retold here after ChEMBL document CHEMBL4627379, “Production of Antitubercular Depsipeptides via Biosynthetic Engineering of Cinnamoyl Units” (2020).

For the assay, the system named is Mycobacterium tuberculosis. Kind of assay: Antitubercular activity against autoluminescent Mycobacterium tuberculosis H37Rv assessed as reduction in microbial growth by two-fold serial dilution method. The assay is classed as functional.

For `C/C=C/[C@H](O)[C@H](O)c1ccccc1/C=C/C(=O)N[C@@H]1C(=O)N[C@@H](CO)C(=O)N[C@H](CC(C)C)C(=O)N[C@@H]([C@H](O)c2ccccc2)C(=O)N[C@@H](CO)C(=O)N[C@H]([C@@H](C)O)C(=O)N[C@H](CO)C(=O)N[C@H](c2ccc(O)cc2)C(=O)N[C@@H](C(C)C)C(=O)N[C@H](CC(C)C)C(=O)O[C@H]1C`, the MIC – broadly, the lowest concentration that inhibits growth of the organism – was found to be 1.9 µM.

As to `C/C=C/C=C/c1ccccc1/C=C/C(=O)N[C@@H]1C(=O)N[C@@H](CO)C(=O)N[C@@H](Cc2c[nH]c3ccccc23)C(=O)N[C@H](CC(N)=O)C(=O)N[C@@H]([C@@H](O)c2ccccc2)C(=O)N2CCC[C@H]2C(=O)N[C@H](C(C)C)C(=O)NCC(=O)N[C@H](CC(C)C)C(=O)N[C@H](Cc2ccc(O)cc2)C(=O)O[C@@H]1C`, the MIC is 2.3 µM.

Consider `Cc1ccccc1/C=C/C(=O)N[C@@H]1C(=O)N[C@@H](CO)C(=O)N[C@@H](Cc2c[nH]c3ccccc23)C(=O)N[C@H](CC(N)=O)C(=O)N[C@@H]([C@@H](O)c2ccccc2)C(=O)N2CCC[C@H]2C(=O)N[C@H](C(C)C)C(=O)NCC(=O)N[C@H](CC(C)C)C(=O)N[C@H](Cc2ccc(O)cc2)C(=O)O[C@@H]1C`, for which the MIC worked out at 14.8 µM.

Take `CO[C@H]1/C=C/O[C@@]2(C)Oc3c(C)c(O)c4c(O)c(c(/C=N/N5CCN(C)CC5)c(O)c4c3C2=O)NC(=O)/C(C)=C\C=C\[C@H](C)[C@H](O)[C@@H](C)[C@@H](O)[C@@H](C)[C@H](OC(C)=O)[C@@H]1C` [RIFAMPIN]: the minimal inhibitory concentration (MIC) came to 0.06 µM.
